For eleven compounds, Ki results are on record in patent publication US9359348B2, “Cyclopropyl imidazopyridine PDE10 inhibitors” (Merck Sharp & Dohme Corp., priority 2012, dated 2016).

Molecules are shown by their SMILES.

The assay has as its target human PDE10A2 (Homo sapiens (Human), UniProt Q9Y233). Description: PDE10 fluorescence polarization (IMAP FP) inhibition assay. As to conditions: FAM-labeled cAMP 50 nM, room temperature. In kind it is biochemical. Here is the method: The activity of the compounds in accordance with the present invention as PDE10 inhibitors may be readily determined without undue experimentation using a fluorescence polarization (FP) methodology that is well known in the art (Huang, W., et al., J. Biomol Screen, 2002, 7: 215).
In a typical experiment the PDE10 inhibitory activity of the compounds of the present invention was determined in accordance with the following experimental method. PDE10A2 was amplified from human fetal brain cDNA (Clontech, Mountain View, Calif.) using a forward primer corresponding to nucleotides 56-77 of human PDE10A2 (Accession No. AF127480, Genbank Identifier 4894716), containing a Kozak consensus sequence, and a reverse primer corresponding to nucleotides 2406-2413 of human PDE10A2 (Accession No. AF127480, Genbank Identifier 4894716). Amplification with Easy-A polymerase (Stratagene, La Jolla, Calif.) was 95° C. for 2 minutes followed by thirty three cycles of 95° C. for 40 seconds, 55° C. for 30 seconds, and 72° C. for 2 minutes 48 seconds. Final extension was 72° C. for 7 minutes. The PCR product was TA cloned into pcDNA3.2-TOPO (Invitrogen, Carlsbad, Calif.) according to standard protocol. AD293 cells with 70-80% confluency were transiently transfected with human PDE10A2/pcDNA3.2-TOPO using Lipofectamine 2000 according to manufacturer specifications (Invitrogen, Carlsbad, Calif.). Cells were harvested 48 hours post-transfection and lysed by sonication (setting 3, 10×5 sec pulses) in a buffer containing 20 mM HEPES, 1 mM EDTA and protease inhibitor cocktail (Roche). Lysate was collected by centrifugation at 75,000 xg for 20 minutes. Supernatant containing the cytoplasmic fraction was used for evaluation of PDE10A2 activity. The fluorescence polarization assay for cyclic nucleotide phosphodiesterases was performed using an IMAP® FP kit supplied by Molecular Devices, Sunnyvale, Calif. (product # R8139). IMAP® technology has been applied previously to phosphodiesterase assays (Huang, W., et al., J. Biomol Screen, 2002, 7: 215). Assays were performed at room temperature in 384-well microtiter plates with an incubation volume of 20.2 μL. Solutions of test compounds were prepared in DMSO and serially diluted with DMSO to yield 8 μL of each of 10 solutions differing by 3-fold in concentration, at 32 serial dilutions per plate. 100% inhibition is determined using a known PDE10 inhibitor, which can be any compound that is present at 5,000 times its Ki value in the assay described as follows, such as papaverine (see Siuciak, et al. Neuropharmacology (2006) 51:386-396; Becker, et al. Behav Brain Res (2008) 186(2):155-60; Threlfell, et al., J Pharmacol Exp Ther (2009) 328(3):785-795), 2-{4-[pyridin-4-yl-1-(2,2,2-trifluoroethyl)-1H-pyrazol-3-yl]phenoxymethyl}quinoline succinic acid or 2-[4-(1-methyl-4-pyridin-4-yl-1H-pyrazol-3-yl)-phenoxymethyl]quinoline succinic acid (see Schmidt, et al. J Pharmacol Exp Ther (2008) 325:681-690; Threlfell, et al., J Pharmacol Exp Ther (2009) 328(3): 785-795). 0% of inhibition is determined by using DMSO (1% final concentrations).
A Labcyte Echo 555 (Labcyte, Sunnyvale, Calif.) is used to dispense 200 nL from each well of the titration plate to the 384 well assay plate. A solution of enzyme (1/1600 dilution from aliquots; sufficient to produce 20% substrate conversion) and a separate solution of FAM-labeled cAMP PDE from Molecular Devices (product # R7506), at a final concentration of 50 nM are made in the assay buffer (10 mM Tris HCl, pH 7.2, 10 mM MgCl2, 0.05% NaN3 0.01% Tween-20, and 1 mM DTT). The enzyme and the substrate are then added to the assay plates in two consecutive additions of 10 μL, and then shaken to mix. The reaction is allowed to proceed at room temperature for 30 minutes. A binding solution is then made from the kit components, comprised of 80% Solution A, 20% Solution B and binding reagent at a volume of 1/600 the total binding solution. […]

human PDE10A2, sequence (Q9Y233 267-1055): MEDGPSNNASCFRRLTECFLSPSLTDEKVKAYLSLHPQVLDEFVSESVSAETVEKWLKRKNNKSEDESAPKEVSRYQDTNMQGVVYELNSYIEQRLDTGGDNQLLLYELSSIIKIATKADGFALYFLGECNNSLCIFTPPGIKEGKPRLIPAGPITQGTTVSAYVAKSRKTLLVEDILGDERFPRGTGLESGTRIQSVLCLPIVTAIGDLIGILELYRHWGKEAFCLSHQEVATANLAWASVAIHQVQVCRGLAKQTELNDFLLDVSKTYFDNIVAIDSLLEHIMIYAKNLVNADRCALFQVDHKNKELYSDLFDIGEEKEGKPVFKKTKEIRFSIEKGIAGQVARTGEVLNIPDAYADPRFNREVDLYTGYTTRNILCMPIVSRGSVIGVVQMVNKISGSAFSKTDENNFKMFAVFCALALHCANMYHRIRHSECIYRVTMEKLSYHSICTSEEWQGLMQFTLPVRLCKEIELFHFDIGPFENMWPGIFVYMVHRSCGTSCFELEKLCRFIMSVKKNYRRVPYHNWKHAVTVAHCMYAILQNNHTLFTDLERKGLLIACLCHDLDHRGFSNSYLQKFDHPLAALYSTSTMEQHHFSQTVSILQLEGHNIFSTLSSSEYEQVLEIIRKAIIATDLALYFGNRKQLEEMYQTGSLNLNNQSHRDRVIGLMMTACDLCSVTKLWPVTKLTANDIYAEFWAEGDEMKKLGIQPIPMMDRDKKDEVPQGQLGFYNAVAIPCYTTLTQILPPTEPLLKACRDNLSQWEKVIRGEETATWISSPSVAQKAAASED

As for `Cc1nc([C@@H]2C[C@H]2c2cn3cccc(C)c3n2)cc(-n2nc(C)nc2C)n1` (relative stereo) [Example 5, 2-((trans)-2-(6-(3,5-dimethyl-1H-1,2,4-triazol-1-yl)-2-methylpyrimidin-4-yl)cyclopropyl)-8-methylimidazo[1,2-a]pyridine], the inhibitory constant (Ki) is over 75 nM.
The same measure for `Cc1nc([C@@H]2C[C@H]2c2cn3c(C)cccc3n2)cc(-n2nc(C)nc2C)n1` (relative stereo) [Example 2, 2-((trans)-2-(6-(3,5-dimethyl-1H-1,2,4-triazol-1-yl)-2-methylpyrimidin-4-yl)cyclopropyl)-5-methylimidazo[1,2-a]pyridine]: 8.3 nM.
The same measure for `Cc1ccn2cc([C@@H]3C[C@H]3c3cc(-n4nc(C)nc4C)nc(C)n3)nc2c1` (relative stereo) [Example 4, 2-((trans)-2-(6-(3,5-dimethyl-1H-1,2,4-triazol-1-yl)-2-methylpyrimidin-4-yl)cyclopropyl)-7-methylimidazo[1,2-a]pyridine]: 44 nM; for `Cc1nc([C@@H]2C[C@H]2c2nc3ccccn3c2C#N)cc(-n2nc(C)nc2C)n1` (relative stereo) [Example 11, 2-((trans)-2-(6-(3,5-dimethyl-1H-1,2,4-triazol-1-yl)-2-methylpyrimidin-4-yl)cyclopropyl)imidazo[1,2-a]pyridine-3-carbonitrile]: over 75 nM; for `C=Cc1c([C@@H]2C[C@H]2c2cc(-n3nc(C)nc3C)nc(C)n2)nc2ccccn12` (relative stereo) [Example 10, 2-((trans)-2-(6-(3,5-dimethyl-1H-1,2,4-triazol-1-yl)-2-methylpyrimidin-4-yl)cyclopropyl)-3-vinylimidazo[1,2-a]pyridine]: 3.8 nM.
The same measure for `Cc1nc([C@@H]2C[C@H]2c2nc3ccccn3c2I)cc(-n2nc(C)nc2C)n1` (relative stereo) [Example 8, 2-((trans)-2-(6-(3,5-dimethyl-1H-1,2,4-triazol-1-yl)-2-methylpyrimidin-4-yl)cyclopropyl)-3-iodoimidazo[1,2-a]pyridine]: 9 nM; for `Cc1nc([C@H]2C[C@@H]2c2cn3ccccc3n2)cc(-n2nc(C)nc2C)n1` (stereo in doubt) [Example 1, 2-((1S,2S)-2-(6-(3,5-dimethyl-1H-1,2,4-triazol-1-yl)-2-methylpyrimidin-4-yl)cyclopropyl)imidazo[1,2-a]pyridine]: 5.8 nM.
As for `Cc1ccc2nc([C@@H]3C[C@H]3c3cc(-n4nc(C)nc4C)nc(C)n3)cn2c1` (relative stereo) [Example 3, 2-((trans)-2-(6-(3,5-dimethyl-1H-1,2,4-triazol-1-yl)-2-methylpyrimidin-4-yl)cyclopropyl)-6-methylimidazo[1,2-a]pyridine], the inhibition constant Ki amounted to 24 nM.
On to `Cc1nc([C@@H]2C[C@H]2c2cn3cccc(F)c3n2)cc(-n2nc(C)nc2C)n1` (relative stereo) [Example 6, 2-((trans)-2-(6-(3,5-dimethyl-1H-1,2,4-triazol-1-yl)-2-methylpyrimidin-4-yl)cyclopropyl)-8-fluoroimidazo[1,2-a]pyridine], for which the inhibition constant (Ki) was over 75 nM.
To `Cc1nc([C@@H]2C[C@H]2c2cn3ccc(F)cc3n2)cc(-n2nc(C)nc2C)n1` (relative stereo) [Example 7, 2-((trans)-2-(6-(3,5-dimethyl-1H-1,2,4-triazol-1-yl)-2-methylpyrimidin-4-yl)cyclopropyl)-7-fluoroimidazo[1,2-a]pyridine] belongs 13 nM.
Compound `Cc1nc([C@@H]2C[C@H]2c2nc3ccccn3c2C)cc(-n2nc(C)nc2C)n1` (relative stereo) [Example 9, 2-((trans)-2-(6-(3,5-dimethyl-1H-1,2,4-triazol-1-yl)-2-methylpyrimidin-4-yl)cyclopropyl)-3-methylimidazo[1,2-a]pyridine] registered an inhibition constant (Ki) of 2.1 nM.

As usually defined, the Ki is a dissociation constant, usually derived from enzyme kinetics or from competition with a known ligand. Higher therefore signals weaker binding.
